Calls of active or inactive are those of the source. The calls are words filed in the database; no cut-off is given here.
Assays:
Poa nemoralis [1] = test: Phytotoxicity against bent grass assessed as leaf necrotic area at 25 ug by detached leaf assay; format: functional
[2] = system: Pectobacterium carotovorum; test: Antimicrobial activity against Erwinia carotovora at 500 ug by antibiotic disk assay; format: functional; conditions: read-out: Diameter of inhibition zone
[3] = system: Agrobacterium tumefaciens; test: Antimicrobial activity against Agrobacterium tumefaciens at 500 ug by antibiotic disk assay; format: functional; conditions: read-out: Diameter of inhibition zone
Penicillium chrysogenum [4] = test: Antimicrobial activity against Penicillium notatum at 1000 ug by antibiotic disk assay; format: functional; conditions: read-out: Diameter of inhibition zone
Senna obtusifolia [5] = test: Phytotoxicity against Sicklepod assessed as leaf necrotic area at 100 ug by detached leaf assay; format: functional
Senna obtusifolia [6] = test: Phytotoxicity against Sicklepod assessed as leaf necrotic area at 50 ug by detached leaf assay; format: functional
Aspergillus flavus [7] = test: Antimicrobial activity against Aspergillus flavus at 500 ug by antibiotic disk assay; format: functional; conditions: read-out: Diameter of inhibition zone
Sorghum bicolor [8] = test: Phytotoxicity against Sorghum bicolor assessed as leaf necrotic area at 25 ug by detached leaf assay; format: functional
Datura stramonium [9] = test: Phytotoxicity against Jimsonweed assessed as leaf necrotic area at 100 ug by detached leaf assay; format: functional
Sorghum halepense [10] = test: Phytotoxicity against Johnson grass assessed as leaf necrotic area at 25 ug by detached leaf assay; format: functional
Nasturtium officinale [11] = test: Phytotoxicity against Nasturtium officinale assessed as leaf necrotic area at 100 ug by detached leaf assay; format: functional
Nasturtium officinale [12] = test: Phytotoxicity against watercress assessed as leaf necrotic area at 25 ug by detached leaf assay; format: functional
Poa nemoralis [13] = test: Phytotoxicity against bent grass assessed as leaf necrotic area at 50 ug by detached leaf assay; format: functional
Chenopodium album [14] = test: Phytotoxicity against Lamb's quarters assessed as electrolyte leakage at 500 to 1000 ug/ml; format: functional, organism-based
Senna obtusifolia [15] = test: Phytotoxicity against Sicklepod assessed as leaf necrotic area at 25 ug by detached leaf assay; format: functional
Ambrosia artemisiifolia [16] = test: Phytotoxicity against rag weed assessed as leaf necrotic area at 100 ug by detached leaf assay; format: functional
Aspergillus flavus [17] = test: Antimicrobial activity against Aspergillus flavus at 1000 ug by antibiotic disk assay; format: functional; conditions: read-out: Diameter of inhibition zone
Escherichia coli [18] = test: Antimicrobial activity against Escherichia coli at 500 ug by antibiotic disk assay; format: functional; conditions: read-out: Diameter of inhibition zone
Ambrosia artemisiifolia [19] = test: Phytotoxicity against rag weed assessed as leaf necrotic area at 25 ug by detached leaf assay; format: functional
[20] = system: Pectobacterium carotovorum; test: Antimicrobial activity against Erwinia carotovora at 1000 ug by antibiotic disk assay; format: functional; conditions: read-out: Diameter of inhibition zone
Sorghum bicolor [21] = test: Phytotoxicity against Sorghum bicolor assessed as leaf necrotic area at 50 ug by detached leaf assay; format: functional
Sorghum halepense [22] = test: Phytotoxicity against Johnson grass assessed as leaf necrotic area at 50 ug by detached leaf assay; format: functional
Chenopodium album [23] = test: Phytotoxicity against Lamb's quarters assessed as leaf necrotic area at 100 ug by detached leaf assay; format: functional
Ipomoea [24] = test: Phytotoxicity against Ipomoea sp. assessed as leaf necrotic area at 25 ug by detached leaf assay; format: functional
Sida spinosa [25] = test: Phytotoxicity against Prickly sida assessed as leaf necrotic area at 100 ug by detached leaf assay; format: functional
Colletotrichum acutatum [26] = test: Antimicrobial activity against Colletotrichum acutatum at 500 ug by antibiotic disk assay; format: functional; conditions: read-out: Diameter of inhibition zone
Ambrosia artemisiifolia [27] = test: Phytotoxicity against rag weed assessed as leaf necrotic area at 50 ug by detached leaf assay; format: functional
[28] = system: Agrobacterium tumefaciens; test: Antimicrobial activity against Agrobacterium tumefaciens at 1000 ug by antibiotic disk assay; format: functional; conditions: read-out: Diameter of inhibition zone
Ipomoea [29] = test: Phytotoxicity against Ipomoea sp. assessed as leaf necrotic area at 100 ug by detached leaf assay; format: functional
Penicillium chrysogenum [30] = test: Antimicrobial activity against Penicillium notatum at 500 ug by antibiotic disk assay; format: functional; conditions: read-out: Diameter of inhibition zone
[31] = system: Curtobacterium flaccumfaciens; test: Antimicrobial activity against Corynebacterium flaccumfaciens at 1000 ug by antibiotic disk assay; format: functional; conditions: read-out: Diameter of inhibition zone
Sida spinosa [32] = test: Phytotoxicity against Prickly sida assessed as leaf necrotic area at 50 ug by detached leaf assay; format: functional
Datura stramonium [33] = test: Phytotoxicity against Jimsonweed assessed as leaf necrotic area at 25 ug by detached leaf assay; format: functional
Ipomoea [34] = test: Phytotoxicity against Ipomoea sp. assessed as leaf necrotic area at 50 ug by detached leaf assay; format: functional
Sida spinosa [35] = test: Phytotoxicity against Prickly sida assessed as leaf necrotic area at 25 ug by detached leaf assay; format: functional
Sorghum bicolor [36] = test: Phytotoxicity against Sorghum bicolor assessed as inhibition of root growth at 1000 ug after 24 hrs root growth assay; format: functional, organism-based
[37] = system: Curtobacterium flaccumfaciens; test: Antimicrobial activity against Corynebacterium flaccumfaciens at 500 ug by antibiotic disk assay; format: functional; conditions: read-out: Diameter of inhibition zone
Nasturtium officinale [38] = test: Phytotoxicity against watercress assessed as leaf necrotic area at 50 ug by detached leaf assay; format: functional
Sorghum halepense [39] = test: Phytotoxicity against Johnson grass assessed as leaf necrotic area at 100 ug by detached leaf assay; format: functional
Escherichia coli [40] = test: Antimicrobial activity against Escherichia coli at 1000 ug by antibiotic disk assay; format: functional; conditions: read-out: Diameter of inhibition zone
Sorghum bicolor [41] = test: Phytotoxicity against Sorghum bicolor assessed as leaf necrotic area at 100 ug by detached leaf assay; format: functional
Chenopodium album [42] = test: Phytotoxicity against Lamb's quarters assessed as leaf necrotic area at 25 ug by detached leaf assay; format: functional
Colletotrichum acutatum [43] = test: Antimicrobial activity against Colletotrichum acutatum at 1000 ug by antibiotic disk assay; format: functional; conditions: read-out: Diameter of inhibition zone
Datura stramonium [44] = test: Phytotoxicity against Jimsonweed assessed as leaf necrotic area at 50 ug by detached leaf assay; format: functional
Chenopodium album [45] = test: Phytotoxicity against Lamb's quarters assessed as leaf necrotic area at 50 ug by detached leaf assay; format: functional
Chenopodium album [46] = test: Phytotoxicity against Lamb's quarters assessed as leaf necrotic area at 10 ug by detached leaf assay; format: functional
Poa nemoralis [47] = test: Phytotoxicity against bent grass assessed as leaf necrotic area at 10 ug by detached leaf assay; format: functional
Sorghum halepense [48] = test: Phytotoxicity against Johnson grass assessed as leaf necrotic area at 10 ug by detached leaf assay; format: functional
Ipomoea [49] = test: Phytotoxicity against Ipomoea sp. assessed as leaf necrotic area at 10 ug by detached leaf assay; format: functional
Datura stramonium [50] = test: Phytotoxicity against Jimsonweed assessed as leaf necrotic area at 10 ug by detached leaf assay; format: functional
Sida spinosa [51] = test: Phytotoxicity against Prickly sida assessed as leaf necrotic area at 10 ug by detached leaf assay; format: functional
Senna obtusifolia [52] = test: Phytotoxicity against Sicklepod assessed as leaf necrotic area at 10 ug by detached leaf assay; format: functional
Ambrosia artemisiifolia [53] = test: Phytotoxicity against rag weed assessed as leaf necrotic area at 10 ug by detached leaf assay; format: functional
Nasturtium officinale [54] = test: Phytotoxicity against watercress assessed as leaf necrotic area at 10 ug by detached leaf assay; format: functional
Sorghum bicolor [55] = test: Phytotoxicity against Sorghum bicolor assessed as leaf necrotic area at 10 ug by detached leaf assay; format: functional

CCC(C)c1occ2c(=O)c(C(=O)O)c(O)cc-2c1C (configuration not stated) [ASCOCHYTINE]
Activity (Poa nemoralis [1]): 7 mm2 | zone of inhibition at 500 µg/disc [2]: 0 mm | zone of inhibition at 500 µg/disc [3]: 26 mm | zone of inhibition at 1000 µg/disc (Penicillium chrysogenum [4]): 10 mm | Activity (Senna obtusifolia [5]): 16 mm2 | Activity (Senna obtusifolia [6]): 13 mm2 | zone of inhibition at 500 µg/disc (Aspergillus flavus [7]): 0 mm | Activity (Sorghum bicolor [8]): 12 mm2 | Activity (Datura stramonium [9]): 22 mm2 | Activity (Sorghum halepense [10]): 10 mm2 | Activity (Nasturtium officinale [11]): 20 mm2 | Activity (Nasturtium officinale [12]): 2 mm2 | Activity (Poa nemoralis [13]): 8 mm2 | Activity (Chenopodium album [14]): Active | Activity (Senna obtusifolia [15]): 9 mm2 | Activity (Ambrosia artemisiifolia [16]): 8 mm2 | zone of inhibition at 1000 µg/disc (Aspergillus flavus [17]): 0 mm | zone of inhibition at 500 µg/disc (Escherichia coli [18]): 8 mm | Activity (Ambrosia artemisiifolia [19]): 5 mm2 | zone of inhibition at 1000 µg/disc [20]: 0 mm | Activity (Sorghum bicolor [21]): 18 mm2 | Activity (Sorghum halepense [22]): 10 mm2 | Activity (Chenopodium album [23]): 19 mm2 | Activity (Ipomoea [24]): 8 mm2 | Activity (Sida spinosa [25]): 35 mm2 | zone of inhibition at 500 µg/disc (Colletotrichum acutatum [26]): 18 mm | Activity (Ambrosia artemisiifolia [27]): 5 mm2 | zone of inhibition at 1000 µg/disc [28]: 35 mm | Activity (Ipomoea [29]): 9 mm2 | zone of inhibition at 500 µg/disc (Penicillium chrysogenum [30]): 0 mm | zone of inhibition at 1000 µg/disc [31]: 42 mm | Activity (Sida spinosa [32]): 20 mm2 | Activity (Datura stramonium [33]): 11 mm2 | Activity (Ipomoea [34]): 9 mm2 | Activity (Sida spinosa [35]): 6 mm2 | Activity (Sorghum bicolor [36]): Active | zone of inhibition at 500 µg/disc [37]: 30 mm | Activity (Nasturtium officinale [38]): 5 mm2 | Activity (Sorghum halepense [39]): 24 mm2 | zone of inhibition at 1000 µg/disc (Escherichia coli [40]): 10 mm | Activity (Sorghum bicolor [41]): 28 mm2 | Activity (Chenopodium album [42]): 5 mm2 | zone of inhibition at 1000 µg/disc (Colletotrichum acutatum [43]): 20 mm | Activity (Datura stramonium [44]): 15 mm2 | Activity (Chenopodium album [45]): 11 mm2

CCC(C)c1oc(CC(C)O)cc(=O)c1C (configuration not stated) [HYALOPYRONE]
zone of inhibition at 500 µg/disc [2]: 0 mm | zone of inhibition at 500 µg/disc [3]: 0 mm | Activity (Senna obtusifolia [5]): 4 mm2 | Activity (Senna obtusifolia [6]): 3 mm2 | zone of inhibition at 500 µg/disc (Aspergillus flavus [7]): 10 mm | Activity (Datura stramonium [9]): 3 mm2 | Activity (Nasturtium officinale [11]): 7 mm2 | Activity (Poa nemoralis [13]): 6 mm2 | Activity (Ambrosia artemisiifolia [16]): 18 mm2 | zone of inhibition at 500 µg/disc (Escherichia coli [18]): 0 mm | Activity (Sorghum bicolor [21]): 18 mm2 | Activity (Sorghum halepense [22]): 11 mm2 | Activity (Chenopodium album [23]): 5 mm2 | Activity (Sida spinosa [25]): 13 mm2 | zone of inhibition at 500 µg/disc (Colletotrichum acutatum [26]): 16 mm | Activity (Ambrosia artemisiifolia [27]): 10 mm2 | Activity (Ipomoea [29]): 8 mm2 | zone of inhibition at 500 µg/disc (Penicillium chrysogenum [30]): 12 mm | Activity (Sida spinosa [32]): 7 mm2 | Activity (Ipomoea [34]): 5 mm2 | zone of inhibition at 500 µg/disc [37]: 12 mm | Activity (Nasturtium officinale [38]): 5 mm2 | Activity (Sorghum halepense [39]): 15 mm2 | Activity (Sorghum bicolor [41]): 23 mm2 | Activity (Datura stramonium [44]): 0 mm2 | Activity (Chenopodium album [45]): 4 mm2

C[C@H]1OC(=O)/C=C\C(=O)/C=C/[C@H]2O[C@@H]12 [PYRENOLIDE A]
Activity (Poa nemoralis [1]): 0 mm2 | zone of inhibition at 500 µg/disc [2]: 0 mm | zone of inhibition at 500 µg/disc [3]: 4 mm | zone of inhibition at 1000 µg/disc (Penicillium chrysogenum [4]): 22 mm | Activity (Senna obtusifolia [6]): 2 mm2 | zone of inhibition at 500 µg/disc (Aspergillus flavus [7]): 0 mm | Activity (Sorghum bicolor [8]): 8 mm2 | Activity (Chenopodium album [46]): 2 mm2 | Activity (Sorghum halepense [10]): 7 mm2 | Activity (Nasturtium officinale [12]): 0 mm2 | Activity (Poa nemoralis [13]): 0 mm2 | Activity (Chenopodium album [14]): Active | Activity (Senna obtusifolia [15]): 0 mm2 | Activity (Poa nemoralis [47]): 0 mm2 | zone of inhibition at 1000 µg/disc (Aspergillus flavus [17]): 0 mm | Activity (Sorghum halepense [48]): 3 mm2 | zone of inhibition at 500 µg/disc (Escherichia coli [18]): 0 mm | Activity (Ambrosia artemisiifolia [19]): 3 mm2 | zone of inhibition at 1000 µg/disc [20]: 0 mm | Activity (Ipomoea [49]): 0 mm2 | Activity (Sorghum bicolor [21]): 10 mm2 | Activity (Datura stramonium [50]): 0 mm2 | Activity (Sorghum halepense [22]): 18 mm2 | Activity (Sida spinosa [51]): 0 mm2 | Activity (Ipomoea [24]): 0 mm2 | Activity (Senna obtusifolia [52]): 0 mm2 | zone of inhibition at 500 µg/disc (Colletotrichum acutatum [26]): 21 mm | Activity (Ambrosia artemisiifolia [27]): 6 mm2 | zone of inhibition at 1000 µg/disc [28]: 22 mm | zone of inhibition at 500 µg/disc (Penicillium chrysogenum [30]): 16 mm | zone of inhibition at 1000 µg/disc [31]: 34 mm | Activity (Sida spinosa [32]): 4 mm2 | Activity (Ambrosia artemisiifolia [53]): 0 mm2 | Activity (Datura stramonium [33]): 0 mm2 | Activity (Ipomoea [34]): 3 mm2 | Activity (Sida spinosa [35]): 0 mm2 | Activity (Sorghum bicolor [36]): Active | zone of inhibition at 500 µg/disc [37]: 22 mm | Activity (Nasturtium officinale [54]): 0 mm2 | Activity (Nasturtium officinale [38]): 1 mm2 | Activity (Sorghum bicolor [55]): 2 mm2 | zone of inhibition at 1000 µg/disc (Escherichia coli [40]): 0 mm | Activity (Chenopodium album [42]): 5 mm2 | zone of inhibition at 1000 µg/disc (Colletotrichum acutatum [43]): 32 mm | Activity (Datura stramonium [44]): 2 mm2 | Activity (Chenopodium album [45]): 13 mm2
